{"source": "patent EP0212822A1", "about": "“A composition containing a plant growth regulator and an alkanol and a method of using the same” (ICI AMERICAS INC., priority 1985, dated 1987)", "key": {"Siberian Elm": {"system": "Siberian Elm", "assay": "Trunk injection of trees (Brown method), Retardation and Uniformity Ratings", "format": "in vivo, Ulmus pumila (Siberian Elm)", "design": "key to Uniformity Rating (U): 0 = no effect from PGR; 1 = poor; 2 = fair; 3 = acceptable; 4 = very good; 5 = excellent", "settings": "10 g (II) in 1 liter methanol", "method": "A method of tree injection and apparatus employed herein is discussed in G. K. Brown, \"Prototype Equipment for Commercial Pressure - Injection of Aqueous Growth Regulators Into Trees,\" Journal of Arboriculture, Vol. 4, pp. 7-13, 1978, and in the references noted therein. Under the Brown method the number of injection holes and total injection volume (TIV) of PGR solution is determined by measuring the diameter of the tree at DBH and using the following formulae: […]\n(§1) The examples which follow exemplify the improvements obtained by this invention. However, these examples are not intended to limit the scope of the invention. In Examples 1-41, the subject trees were injected at a distance approximately one foot from the soil line by drilling 7/32 inch diameter holes to a 2 inch depth at a 30-45° angle tangential to the trunk with a pressure injector (150 psi) purchased from the Asplundh Tree Expert Co., Company No. 346-3502. The results are expressed in terms of Retardation and Uniformity Ratings. The Retardation rating scale is as follows: • 0 = no retardataion • 1 = 1-20% retardation • 2 = 21-40% retardation • 3 = 41-60% retardation • 4 = 61-80% retardation • 5 = 81-100% retardation\nThe Uniformity Rating is a measure of the consistency of response to the treatment between different branches of the tree. The Uniformity scale employed is as follows: • 0 = no effect from PGR • 1 = poor • 2 = fair • 3 = acceptable • 4 = very good • 5 = excellent\n10 (0.034 moles) grams of (2RS,3RS)-1-(4-chlorophenyl)-4,4-dimethyl-2-1,2,4-triazol-1-yl)pen- tan-3-ol (II) of the formula [drawing 41] was dissolved in 1 liter of methanol at room temperature and was stirred until the solution was clear, approximately 20 minutes.\nIn these examples, the number of injection holes, volume per injection hole and total injection volume in ml was determined from the DBH in accordance' with the Brown method."}, "[1]": {"assay": "Solubility in methanol water mixtures (HPLC and UV absorption)", "format": "physicochemical", "method": "An excess of compound of formula (II) was shaken with methanol water mixtures for a minimum of 4 hours. Samples were passed through a micropore filter to remove undissolved solid, and then centrifuged to remove any emulsified material. The resulting saturated solutions were analyzed by both HPLC and UV absorption against known standard solutions. […] In water alone, solubility is only 35 mg 1^-1 (ppm). Thus, formulations of formula (II) in methanol are low in viscosity when injected, and the PGR will rapidly precipitate within the trunk as the methanol becomes diluted with transpiration water."}, "Malus communis (Apple)": {"system": "Malus communis (Apple)", "assay": "Trunk injection, percent of growth based upon a control", "format": "in vivo", "settings": "35 days after treatment", "method": "as §1\n(2RS, 3RS)-1-(4-chlorophenyl-4,4-dimethyl-2,-1,2,4-triazol-1-yl)pentan-3-ol (PGR) was dissolved in 1 liter of solvent at room temperature and the resulting solution was stirred until clear, approximately 20 to 30 minutes. Two equal aliquots of the resulting solution were injected into two injection holes of the trunk of Malus communis (Apple) having a trunk diameter at the point of injection approximately 4 to 5 inches. The injection holes were approximately 12 inches above the soil surface. The percent of growth, based upon a control, was measured 35 days after treatment."}, "[2]": {"settings": "week 14 after treatment, listed as 1, 12 in. DBH tree, 229 ml per tree"}, "[3]": {"settings": "week 14 after treatment, listed as 2, 17 in. DBH tree, 432 ml per tree"}, "[4]": {"settings": "week 14 after treatment, listed as 3, 13 in. DBH tree, 268 ml per tree"}, "[5]": {"settings": "week 14 after treatment, listed as 4, 11 in. DBH tree, 192 ml per tree"}, "[6]": {"settings": "week 14 after treatment, listed as 5, 15 in. DBH tree, 119 ml per tree"}, "[7]": {"settings": "week 14 after treatment, listed as 6, 11 in. DBH tree, 192 ml per tree"}, "[8]": {"settings": "week 67 after treatment, listed as 1, 12 in. DBH tree, 229 ml per tree"}, "[9]": {"settings": "week 67 after treatment, listed as 2, 17 in. DBH tree, 432 ml per tree"}, "[10]": {"settings": "week 67 after treatment, listed as 3, 13 in. DBH tree, 268 ml per tree"}, "[11]": {"settings": "week 67 after treatment, listed as 4, 11 in. DBH tree, 192 ml per tree"}, "[12]": {"settings": "week 67 after treatment, listed as 5, 15 in. DBH tree, 119 ml per tree"}, "[13]": {"settings": "week 67 after treatment, listed as 6, 11 in. DBH tree, 192 ml per tree"}}, "data": [{"compound": "CC(C)(C)[C@@H](O)[C@@H](Cc1ccc(Cl)cc1)n1cncn1", "note": "(racemic) [Formula (II), (2RS,3RS)-1-(4-chlorophenyl-4,4-dimethyl-2-1,2,4-triazol-1-yl)pentan-3-ol]", "values": [{"measurement": "Retardation Rating (R)", "setting": "Siberian Elm; [2]", "value": "3 (3 = 41-60% retardation)"}, {"measurement": "Uniformity Rating (U)", "setting": "Siberian Elm; [2]", "value": 4}, {"measurement": "Retardation Rating (R)", "setting": "Siberian Elm; [3]", "value": "3 (3 = 41-60% retardation)"}, {"measurement": "Uniformity Rating (U)", "setting": "Siberian Elm; [3]", "value": 3}, {"measurement": "Retardation Rating (R)", "setting": "Siberian Elm; [4]", "value": "4 (4 = 61-80% retardation)"}, {"measurement": "Uniformity Rating (U)", "setting": "Siberian Elm; [4]", "value": 4}, {"measurement": "Retardation Rating (R)", "setting": "Siberian Elm; [5]", "value": "4 (4 = 61-80% retardation)"}, {"measurement": "Uniformity Rating (U)", "setting": "Siberian Elm; [5]", "value": 4}, {"measurement": "Retardation Rating (R)", "setting": "Siberian Elm; [6]", "value": "3 (3 = 41-60% retardation)"}, {"measurement": "Uniformity Rating (U)", "setting": "Siberian Elm; [6]", "value": 5}, {"measurement": "Retardation Rating (R)", "setting": "Siberian Elm; [7]", "value": "3 (3 = 41-60% retardation)"}, {"measurement": "Uniformity Rating (U)", "setting": "Siberian Elm; [7]", "value": 4}, {"measurement": "Retardation Rating (R)", "setting": "Siberian Elm; [8]", "value": "5 (5 = 81-100% retardation)"}, {"measurement": "Uniformity Rating (U)", "setting": "Siberian Elm; [8]", "value": 5}, {"measurement": "Retardation Rating (R)", "setting": "Siberian Elm; [9]", "value": "4 (4 = 61-80% retardation)"}, {"measurement": "Uniformity Rating (U)", "setting": "Siberian Elm; [9]", "value": 3}, {"measurement": "Retardation Rating (R)", "setting": "Siberian Elm; [10]", "value": "4 (4 = 61-80% retardation)"}, {"measurement": "Uniformity Rating (U)", "setting": "Siberian Elm; [10]", "value": 4}, {"measurement": "Retardation Rating (R)", "setting": "Siberian Elm; [11]", "value": "5 (5 = 81-100% retardation)"}, {"measurement": "Uniformity Rating (U)", "setting": "Siberian Elm; [11]", "value": 5}, {"measurement": "Retardation Rating (R)", "setting": "Siberian Elm; [12]", "value": "5 (5 = 81-100% retardation)"}, {"measurement": "Uniformity Rating (U)", "setting": "Siberian Elm; [12]", "value": 5}, {"measurement": "Retardation Rating (R)", "setting": "Siberian Elm; [13]", "value": "5 (5 = 81-100% retardation)"}, {"measurement": "Uniformity Rating (U)", "setting": "Siberian Elm; [13]", "value": 5}, {"measurement": "solubility at 4 h", "setting": "[1]; in water alone", "value": 35, "unit": "µg/mL"}, {"measurement": "solubility at 4 h", "setting": "[1]; organic solvent or mixture, 10 % Methanol in water", "value": 53, "unit": "µg/mL"}, {"measurement": "solubility at 4 h", "setting": "[1]; organic solvent or mixture, 20 % Methanol in water", "value": 89, "unit": "µg/mL"}, {"measurement": "solubility at 4 h", "setting": "[1]; organic solvent or mixture, 50 % Methanol in water", "value": 1200, "unit": "µg/mL"}, {"measurement": "solubility at 4 h", "setting": "[1]; organic solvent or mixture, 100 % Methanol", "value": 56000, "unit": "µg/mL"}, {"measurement": "solubility at 4 h", "setting": "[1]; water (0% methanol), organic solvent or mixture, 0 % Methanol", "value": 35, "unit": "µg/mL"}, {"measurement": "Growth, % of Control", "setting": "Malus communis (Apple); 2 g PGR in 1 liter Water, total inj. vol. not given", "value": "84 % of Control"}, {"measurement": "Growth, % of Control", "setting": "Malus communis (Apple); 2.5 g PGR in 1 liter Ethanol, total inj. vol. 200 ml", "value": "58 % of Control"}, {"measurement": "Growth, % of Control", "setting": "Malus communis (Apple); 5 g PGR in 1 liter Ethanol, total inj. vol. 100 ml", "value": "59 % of Control"}, {"measurement": "Growth, % of Control", "setting": "Malus communis (Apple); 5 g PGR in 1 liter Ethanol, total inj. vol. 200 ml", "value": "58 % of Control"}, {"measurement": "Growth, % of Control", "setting": "Malus communis (Apple); 10 g PGR in 1 liter Ethanol, total inj. vol. 50 ml", "value": "70 % of Control"}, {"measurement": "Growth, % of Control", "setting": "Malus communis (Apple); 10 g PGR in 1 liter Ethanol, total inj. vol. 100 ml", "value": "76 % of Control"}, {"measurement": "Growth, % of Control", "setting": "Malus communis (Apple); 10 g PGR in 1 liter Ethanol, total inj. vol. 200 ml", "value": "56 % of Control"}, {"measurement": "Growth, % of Control", "setting": "Malus communis (Apple); 10 g PGR in 1 liter Methanol, total inj. vol. 200 ml", "value": "59 % of Control"}, {"measurement": "Growth, % of Control", "setting": "Malus communis (Apple); 10 g PGR in 1 liter Water, total inj. vol. 50 ml", "value": "100 % of Control"}, {"measurement": "Growth, % of Control", "setting": "Malus communis (Apple); 10 g PGR in 1 liter Water, total inj. vol. 100 ml", "value": "103 % of Control"}, {"measurement": "Growth, % of Control", "setting": "Malus communis (Apple); 20 g PGR in 1 liter Ethanol, total inj. vol. 25 ml", "value": "79 % of Control"}, {"measurement": "Growth, % of Control", "setting": "Malus communis (Apple); 20 g PGR in 1 liter Ethanol, total inj. vol. 50 ml", "value": "82 % of Control"}, {"measurement": "Growth, % of Control", "setting": "Malus communis (Apple); 20 g PGR in 1 liter Ethanol, total inj. vol. 100 ml", "value": "60 % of Control"}, {"measurement": "Growth, % of Control", "setting": "Malus communis (Apple); 20 g PGR in 1 liter Methanol, total inj. vol. 100 ml", "value": "60 % of Control"}, {"measurement": "Growth, % of Control", "setting": "Malus communis (Apple); 40 g PGR in 1 liter Ethanol, total inj. vol. 25 ml", "value": "77 % of Control"}, {"measurement": "Growth, % of Control", "setting": "Malus communis (Apple); 40 g PGR in 1 liter Ethanol, total inj. vol. 50 ml", "value": "72 % of Control"}, {"measurement": "Growth, % of Control", "setting": "Malus communis (Apple); 40 g PGR in 1 liter Methanol, total inj. vol. 50 ml", "value": "76 % of Control"}, {"measurement": "Growth, % of Control", "setting": "Malus communis (Apple); 40 g PGR in 1 liter Methanol, total inj. vol. 100 ml", "value": "52 % of Control"}, {"measurement": "Growth, % of Control", "setting": "Malus communis (Apple); 50 g PGR in 1 liter Ethanol, total inj. vol. 10 ml", "value": "90 % of Control"}, {"measurement": "Growth, % of Control", "setting": "Malus communis (Apple); 80 g PGR in 1 liter Methanol, total inj. vol. 25 ml", "value": "68 % of Control"}]}]}
